According to article PMC10860121 (ACS infectious diseases, 2023):
Read-outs that look alike come from different tables or passages of the source.

Key:
[1] = system: Chloroquine-sensitive NF54 P. falciparum isolate; assay: In vitro antiplasmodial activity, NF54; type: cell-based, Plasmodium falciparum
P. falciparum RF12 = assay: In vitro antiplasmodial activity, RF12, 72 h [3H]hypoxanthine incorporation; type: cell-based; conditions: Plasmodium falciparum, read-out: P. falciparum IC50 RF12
P. falciparum TM90C2B = type: cell-based; conditions: Plasmodium falciparum, read-out: P. falciparum IC50 TM90C2B
P. falciparum K1 = assay: In vitro antiplasmodial activity, K1, 72 h [3H]hypoxanthine incorporation; type: cell-based; conditions: Plasmodium falciparum, K1, read-out: P. falciparum IC50 K1
P. falciparum Dd2 = assay: In vitro antiplasmodial activity, Dd2, 72 h [3H]hypoxanthine incorporation; type: cell-based; conditions: Plasmodium falciparum, DD2, read-out: P. falciparum IC50 Dd2
P. falciparum 7G8 = assay: In vitro antiplasmodial activity, 7G8, 72 h [3H]hypoxanthine incorporation; type: cell-based; conditions: Plasmodium falciparum, 7G8, read-out: P. falciparum IC50 7G8
Chromatographic LogD7.4 = type: physicochemical; conditions: pH 7.4; for chromatographic logD: gradient HPLC, Phenomenex Synergi Hydro-RP column; for gLogD7.4: chromatographically determined
[2] = Stability in 0.1 M PBS pH 7.4; type: physicochemical; conditions: 7 h incubation period
[3] = Stability in P. falciparum activity test medium; type: physicochemical; conditions: for half-life at 1 μM: P. falciparum in vitro activity test medium
[4] = In vitro intrinsic clearance in human liver microsomes; type: in vitro ADME; conditions: for microsomal CLint: human, liver microsomes, h CLint
[5] = In vitro intrinsic clearance in mouse liver microsomes; type: in vitro ADME
[6] = system: rat skeletal myoblast L6 cell line; assay: Cytotoxicity, growth inhibition of L6 cells; type: cell-based; conditions: read-out: L6 IC50, mean from n ≥ 2
[7] = Kinetic solubility at pH 6.5 by nephelometry; type: physicochemical; conditions: pH 6.5 phosphate buffer, 1% DMSO, solubility range by nephelometry
[8] = system: GFP MRA-865 strain of Plasmodium berghei; assay: In vivo antimalarial activity in P. berghei-infected mice; conditions: female NMRI mice, four 50 mg/kg daily oral doses; untreated control 52.3 ± 2.6%
[9] = In vivo pharmacokinetics in mice; set-up: species or system male Swiss outbred mice
[10] = Plasmodium falciparum, NF54, read-out: P. falciparum IC50 NF54, Mean ± SD, n ≥ 2, 72 h [3H]hypoxanthine incorporation assay
[11] = Plasmodium falciparum, NF54, read-out: P. falciparum IC50, NF54, mean from n ≥ 2
[12] = read-out: P. falciparum IC50, NF54, mean from n ≥ 2

| IC50 (P. falciparum RF12) [nM] | IC50 (P. falciparum TM90C2B) [nM] | IC50 (P. falciparum K1) [nM] | IC50 (P. falciparum Dd2) [nM] | chromatographic logD (Chromatographic LogD7.4) | IC50 [1, 11] [nM] | h CLint [4] [μL/min/mg protein] | microsomal CLint [4] [µL/min/mg] | microsomal CLint [5] [µL/min/mg] | gLogD7.4 (Chromatographic LogD7.4) | IC50 [1, 12] [nM] | Kinetic Sol6.5 [7] [µg/mL] | m CLint [5] [μL/min/mg protein] | SMILES | IC50 [6] [µM] | also measured |
| --- | --- | --- | --- | --- | --- | --- | --- | --- | --- | --- | --- | --- | --- | --- | --- |
| 6.8 ± 1.4 | 7.4 ± 1.3 | 2.8 ± 0.64 | 6.1 ± 1.4 |  |  |  |  |  |  |  |  |  | C[C@H]1[C@H](OC(=O)CCC(=O)O)O[C@@H]2O[C@@]3(C)CC[C@H]4[C@H](C)CC[C@@H]1[C@@]24OO3 [Artesunate, artesunate] |  | IC50 [1, 10]: 6 ± 0.9 nM |
|  |  |  |  | 1.9 | 190 | 20 | 20 to 40 | 39 |  |  |  |  | O=C1Nc2ccccc2C(=O)CCc2ccccc21 [Compound 2, 11,12-dihydro-5H-dibenzo[b,g]azonine-6,13-dione] |  | loss in 0.1 M PBS pH 7.4 [2]: < 5%; Apparent degradation t1/2, In Vitro Assay Medium ([3]; 1 μM, 37 °C, 6 h incubation, parentheses 95% confidence interval): No loss detected over 6 h |
|  |  |  |  |  |  |  |  |  | 2.0 | 21000 | >100 |  | O=C1CCOc2ccccc2C(=O)Nc2ccccc21 [Compound 7, 6,7-Dihydro-8H-dibenzo[b,f][1,5]oxazecine-8,14-(13H)-dione] | 31 | fold less potent than 2 (antiplasmodial) ([1]; relative to compound 2): > 100 fold |
|  |  |  |  |  |  | 310 |  |  | 2.9 | 100000 | 25 to 50 | > 870 | O=C1CCc2ccccc2C(=O)N2CCCc3cccc1c32 [Compound 15, 2,3,8,9-Tetrahydro-1H-benzo[7,8]azonino[3,2,1-i,j]-quinoline-7,14-dione] | 83 |  |
| 11 ± 0.86 | 1000 | 30 ± 7.5 | 30 ± 7.2 | 2.6 | 41 |  | 100 | 910 |  |  |  |  | CCOC(=O)c1ccc2c(c1)C(=O)CCc1ccccc1C(=O)N2 [Compound 18, Ethyl 6,13-Dioxo-6,11,12,13-tetrahydro-5H-dibenzo-[b,g]azonine-2-carboxylate] |  | IC50 [1, 10]: 41 ± 7.4 nM; fold more potent than 2 (antiplasmodial) ([1]; relative to compound 2): roughly 5 fold; IC50 (P. falciparum 7G8): 32 ± 9.9 nM |
|  |  |  |  |  |  | 13 |  |  | 1.2 | 8900 | >100 | 26 | O=C1Nc2ncccc2C(=O)CCc2ccccc21 [Compound 29, 6,7-Dihydro-5H-benzo[g]pyrido[2,3-b]azonine-5,12-(13H)-dione] | 60 |  |
|  |  |  |  |  |  | 11 |  |  | 0.9 | 11000 | >100 | 10 | O=C1CCc2cccnc2C(=O)Nc2ccccc21 [Compound 31, 5,6-Dihydro-7H-benzo[b]pyrido[3,2-g]azonine-7,13-(12H)-dione] | 190 |  |
|  |  |  |  | 2.1 | 130 |  | 11 | 110 |  |  |  |  | O=C1Nc2ccccc2C(=O)CCc2cc(F)ccc21 [Compound 32, 9-Fluoro-11,12-dihydro-5H-dibenzo[b,g]azonine-6,13-dione] |  | loss in 0.1 M PBS pH 7.4 [2]: < 5%; half-life at 1 μM [3]: 1500 min |

| SMILES | IC50 (P. falciparum RF12) [nM] | IC50 (P. falciparum TM90C2B) [nM] | IC50 (P. falciparum K1) [nM] | IC50 (P. falciparum Dd2) [nM] | chromatographic logD (Chromatographic LogD7.4) | IC50 [1, 11] [nM] | h CLint [4] [μL/min/mg protein] | microsomal CLint [4] [µL/min/mg] | microsomal CLint [5] [µL/min/mg] | gLogD7.4 (Chromatographic LogD7.4) | IC50 [1, 12] [nM] | Kinetic Sol6.5 [7] [µg/mL] | m CLint [5] [μL/min/mg protein] | IC50 [6] [µM] | also measured |
| --- | --- | --- | --- | --- | --- | --- | --- | --- | --- | --- | --- | --- | --- | --- | --- |
| CCN(CC)CCCC(C)Nc1ccnc2cc(Cl)ccc12 (centres unmarked) [Chloroquine, chloroquine] | 350 | 160 ± 22 | 270 ± 41 | 180 ± 21 |  |  |  |  |  |  |  |  |  |  | IC50 ([1]; Plasmodium falciparum, NF54, read-out: P. falciparum IC50 NF54): 9.1 ± 1.5 nM; IC50 (P. falciparum 7G8): 57 ± 0.9 nM |
| O=C1Nc2cc(F)cc(F)c2C(=O)CCc2ccccc21 [Compound 28, 1,3-Difluoro-11,12-dihydro-5H-dibenzo[b,g]azonine-6,13-dione] |  |  |  |  | 2.5 | 7 |  | 17 | 58 |  |  |  |  |  | parasitemia [8]: 49.0 ± 4.3%; in vitro selectivity index ([1]; antiplasmodial selectivity, L6 cytotoxicity vs P. falciparum): > 10,000; half-life at 1 μM [3]: 282 min; clearance ([9]; male, Swiss outbred, mouse, plasma, iv): 147 mL/min/kg; Cmax ([9]; male, Swiss outbred, mouse, plasma, po): ~500 ng/mL; adverse reactions or compound-related side effects ([9]; mice, 24 h post-dose sampling period, IV and PO): No adverse reactions or compound-related side effects were observed |
